Source: patent US11427590B2, “Small molecule inhibitors of neutral sphingomyelinase 2 (nSMase2) for the treatment of neurodegenerative diseases” (The Johns Hopkins University, priority 2017, dated 2022)

Legend:
[1] = background statement on known inhibitor; cited from earlier work
[2] = Phase I metabolic stability in human liver microsomes; type: in vitro ADME; conditions: 37° C.
Description: (§1) Phase I metabolic stability in both mouse and human liver microsomes was performed as described previously. Rais et al. Briefly, compounds are spiked in liver microsomes (mouse, human) and incubated in an orbital shaker at 37° C. […] Compound disappearance is monitored over time using LC/MS/MS.

rat astrocytes = assay: Inhibition of exosome release from primary astrocytes in vitro; type: cell-based; conditions: 0.3-10 μM, 2 h after treatment, vs DMSO (0.02%)
Description: The effect of nSMase2 inhibitors on the manufacturing and release of ceramide rich exosomes from primary astrocytes was investigated as previously described. Dickens, et al. Briefly, rat astrocytes are seeded onto 6-well plates at a density of 20,000 cells/well. Twenty-four hours after seeding, astrocytes are washed with PBS and the medium changed to media without FBS. Absence of FBS mimics a trophic factor withdrawal stimulus causing the release of exosomes via a nSMase2-dependent pathway. Astrocytes are then treated with nSMase2 inhibitors at concentrations in the range 0.03-30 μM. DMSO (0.02%) is used as control. Two hours after treatment, media is collected and centrifuged at 2700 g for 15 min (4° C.). Supernatant is further centrifuged at 10,000 g for 15 min (4° C.) to remove large particles such as apoptotic bodies. Astrocyte-derived extracellular vesicles (EVs) are isolated via ultracentrifugation at 100,000 g for 3 h at 4° C. Fractions containing EV are washed twice with 5 ml PBS and the final pellet resuspended in PBS. This isolation procedure results in the isolation of EVs with a narrow size range and protein markers consistent with exosomes. Dickens, et al. The number of EVs is quantified using ZetaView Nanoparticle Tracker (Particle Metrix GmBH, Meerbusch, Germany) and the corresponding ZetaVeiw software (8.03.04.01). Nanosphere size standard 100 nm (Thermo Scientific) is used to calibrate the instrument prior to sample readings. For each sample 1 mL of the supernatant is injected into the sample-carrier cell and the particle count measured at 5 positions, with 2 cycles of reading per position. Cells are washed with PBS after every sample. Mean concentration of EVs/mL (±SEM) is calculated from 6 replicates. This screening assay is reliable with a Z′=0.75.
Referring now to FIG. 4A and FIG. 4B, the ability of compound 38 and several of its analogs to inhibit exosome release in vitro was evaluated as previously described. […] Two hours after treatment, exosomes were isolated from the media and quantified using ZetaView Nanoparticle Tracker. The mean concentration of exosomes (EVs/mL±SEM) was calculated from 6 replicate experiments (see FIG. 4). […] Baseline exosome release can be variable between experiments; as a result, inhibition is always compared relative to vehicle treatment within the same experiment. Structures of compounds with their corresponding IC50s are provided in the second row of FIG. 4.

alkaline phosphatase = assay: Inhibition of related enzyme alkaline phosphatase; conditions: related enzyme (phosphomonoesterase)
Description: Phosphorylcholine undergoes dephosphorylation in a reaction catalyzed by alkaline phosphatase (4 U/mL) to produce choline which in turn is oxidized by choline oxidase (0.1 U/mL) to betaine and hydrogen peroxide (H2O2). Hydrogen peroxide is made to react with Amplex red (50 μM) in the presence of horseradish peroxidase (HRP, 1 U/mL) to generate the fluorescent molecule resorufin. Generation of fluorescence is monitored by measuring relative florescence units (RFU) with excitation at 530 nm and emission at 590 nm. Extent of fluorescence is directly proportional to the extent of SM hydrolysis. Substrate stock solution is prepared in 2% Triton X-100 and sonicated for 1 min. Reactions are carried out for 1 h at 37° C. in 100 mM Tris-HCl pH 7.4, 10 mM MgCl2, 0.2% Triton X-100. This assay has been optimized in 384-well format (50 μL total volume per well) under conditions where nSMase2-catalyzed hydrolysis of SM is linear with respect to nSMase2 concentration, time of incubation and SM concentration (FIGS. 3A-3C). The assay has high reliability (Z′=0.8-0.9). It is used for compound screening, IC50 determinations and mode of inhibition studies. IC50 determinations are carried out in duplicate eight-point dose response curves. A counter screen is concomitantly carried out to identify false positives resulting from inhibition of the coupling enzymes. […]

acid sphinghomyelinase = acid sphinghomyelinase (Homo sapiens (Human), UniProt P17405); assay: Inhibition of related enzyme acid sphingomyelinase; type: biochemical; conditions: related enzyme (phosphodiesterase)
acid sphinghomyelinase, sequence (P17405 47-631): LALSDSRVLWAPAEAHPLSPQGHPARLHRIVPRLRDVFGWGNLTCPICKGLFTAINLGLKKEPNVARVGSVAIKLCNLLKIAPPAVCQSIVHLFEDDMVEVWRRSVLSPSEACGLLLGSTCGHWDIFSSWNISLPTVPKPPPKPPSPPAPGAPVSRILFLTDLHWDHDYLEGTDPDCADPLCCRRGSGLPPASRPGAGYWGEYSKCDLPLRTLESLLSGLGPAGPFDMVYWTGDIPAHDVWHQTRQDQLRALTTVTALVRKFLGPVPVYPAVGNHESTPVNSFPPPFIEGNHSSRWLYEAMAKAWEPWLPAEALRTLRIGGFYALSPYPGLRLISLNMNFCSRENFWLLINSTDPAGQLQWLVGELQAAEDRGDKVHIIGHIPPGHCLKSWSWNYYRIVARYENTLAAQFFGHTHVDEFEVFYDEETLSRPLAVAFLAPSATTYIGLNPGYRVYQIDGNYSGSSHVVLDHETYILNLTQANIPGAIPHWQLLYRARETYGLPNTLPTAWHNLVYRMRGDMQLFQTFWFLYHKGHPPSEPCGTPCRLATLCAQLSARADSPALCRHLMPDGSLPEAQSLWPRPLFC

GFAP-GFP mice = assay: Inhibition of exosome release in vivo after striatal IL-1β injection; conditions: mouse
Description: Striatal injections of IL-1β and exosome measurements are performed as previously described by our group in adult (2-3 month) male GFAP-GFP mice (Jackson Laboratories). Dickens, et al.; McCluskey, et al. Mice are anesthetized with 3% Isoflourane (Baxter) in oxygen (Airgas), and placed in a stereotaxic frame (Stoelting Co.). A small burr hole is drilled in the skull over the left striatum using a dental drill (Fine Scientific Tools). IL1β (0.1 ng/3 μl) is injected (total volume of 3 μl) at the rate 0.5 μl/min via a pulled glass capillary tip diameter <50 μm using the stereotaxic coordinates: A/P+1; M/L-2; -3 D/V. Following infusion, the capillary is held in place for 5 min to allow for solution to diffuse into the tissue. Animals are sacrificed at 2, 12 or 24 h by an overdose of anesthetic, and transcardially perfused with ice-cold saline containing heparin (20 μl per 100 ml, Sigma). Blood is rapidly isolated and flash frozen. […]
GFAP-GFP mice that release green EVs from astrocytes into the systemic circulation were used so that exosome release from astrocytes in plasma can be followed. […] The concentration of immunoprecipitated GFP+ EVs is quantified using ZetaView nanoparticle tracking analysis (Particle Metrix) as described in the cell-based exosome release. […]

[3] = Pharmacokinetics, plasma and brain levels in mice
Description: Blood was obtained via cardiac puncture and brain tissue was dissected at 0.25, 0.5, 1, 2, 4, 6 and 8 h post dose (n=3 per gender and time point). Plasma was harvested from blood by centrifugation. Subsequently, samples were extracted from plasma and brain by a one-step protein precipitation using acetonitrile followed by vortexing for […] and centrifugation (10,000 g for 10 min) as we have described previously. Rais, et al. Once extracted, the samples were reconstituted into a mobile phase and analyzed via LC/MS/MS. Plasma concentrations (nM) as well as tissue concentrations (pmol/g) were determined and plots of mean plasma concentration vs. time were constructed for PK analysis. Non-compartmental-analysis modules in WinNonlin® (version 5.3) were used to assess pharmacokinetic parameters including maximal concentration (Cmax), time to Cmax (Tmax), area under the curve extrapolated to infinity (AUC0-∞) and brain-to-plasma (B/P) ratios.

[4] = system: panel of 44 selected targets
[5] = Phase I metabolic stability in mouse liver microsomes; type: in vitro ADME; conditions: 37° C.
Description: as §1

Mouse Liver Microsome (+) NADPH % Remaining at 60 min [5] [%]	SMILES	solubility [1]	Human Liver Microsome (+) NADPH Remaining at 60 min [2] [%]	exosome release from astrocytes (rat astrocytes)	inhibition of alkaline phosphatase (alkaline phosphatase)	inhibition of acid sphinghomyelinase (acid sphinghomyelinase)	exosomes in plasma after striatal IL-1β injection (GFAP-GFP mice)	systemic exposure ([3]; 10 mg/kg i.p.)	brain exposure ([3]; 10 mg/kg peroral)	plasma exposure ([3]; 10 mg/kg peroral)	inhibition of positive hits ([4]; 10 μM, all positive hits)	segregation in potency between off targets and nSMase2 ([4]; off targets vs nSMase2) [fold]
	O=C(/C=C/c1ccc(/C=C/C(=O)Nc2ccc(C3=NCCN3)cc2)cc1)Nc1ccc(C2=NCCN2)cc1 [GW4869]	poor solubility										
	COc1ccc(-c2c(C)nc3c(N4CC[C@@H](NC(=O)Oc5ccccc5)C4)cc(C)nn23)cc1OC [compound 38, Phenyl (R)-(1-(3-(3,4-dimethoxyphenyl)-2,6-dimethylimidazo[1,2-b]pyridazin-8-yl)pyrrolidin-3-yl) carbamate]		103 ± 14	decreased the number of exosomes released from astrocytes in a dose dependent manner	not inhibiting	not inhibiting	significantly reduced the increased exosomes	high systemic exposures	high brain exposures	high plasma exposures	less than 100%	≥ 20
53 ± 6	COc1ccc(-c2c(-c3ccc(C)cc3)nc3c(N4CC[C@@H](NC(C)=O)C4)cc(C)nn23)cc1OC [compound 62, (R)—N-(1-(3-(3,4-dimethoxyphenyl)-6-methyl-2-(p-tolyl)imidazo[1,2-b]pyridazin-8-yl)pyrrolidin-3-yl)acetamide]		28 ± 5	decreased the number of exosomes released from astrocytes in a dose dependent manner								
